Active and inactive are the calls of the source. The calls are words filed in the database; no cut-off is given here.
What was measured:
[1] = target: Tyrosine-protein kinase JAK1 (Homo sapiens, UniProt P23458); assay: Inhibition of GST-tagged JAK1 (unknown origin) using fluoresceinated peptide as substrate after 3 hrs by caliper assay
[2] = target: T1, Tyrosine-protein kinase JAK2 (Homo sapiens, UniProt O60674); assay: Inhibition of GST-tagged JAK2 (unknown origin) using fluoresceinated peptide as substrate after 3 hrs by caliper assay
T1 sequence (O60674 whole entry): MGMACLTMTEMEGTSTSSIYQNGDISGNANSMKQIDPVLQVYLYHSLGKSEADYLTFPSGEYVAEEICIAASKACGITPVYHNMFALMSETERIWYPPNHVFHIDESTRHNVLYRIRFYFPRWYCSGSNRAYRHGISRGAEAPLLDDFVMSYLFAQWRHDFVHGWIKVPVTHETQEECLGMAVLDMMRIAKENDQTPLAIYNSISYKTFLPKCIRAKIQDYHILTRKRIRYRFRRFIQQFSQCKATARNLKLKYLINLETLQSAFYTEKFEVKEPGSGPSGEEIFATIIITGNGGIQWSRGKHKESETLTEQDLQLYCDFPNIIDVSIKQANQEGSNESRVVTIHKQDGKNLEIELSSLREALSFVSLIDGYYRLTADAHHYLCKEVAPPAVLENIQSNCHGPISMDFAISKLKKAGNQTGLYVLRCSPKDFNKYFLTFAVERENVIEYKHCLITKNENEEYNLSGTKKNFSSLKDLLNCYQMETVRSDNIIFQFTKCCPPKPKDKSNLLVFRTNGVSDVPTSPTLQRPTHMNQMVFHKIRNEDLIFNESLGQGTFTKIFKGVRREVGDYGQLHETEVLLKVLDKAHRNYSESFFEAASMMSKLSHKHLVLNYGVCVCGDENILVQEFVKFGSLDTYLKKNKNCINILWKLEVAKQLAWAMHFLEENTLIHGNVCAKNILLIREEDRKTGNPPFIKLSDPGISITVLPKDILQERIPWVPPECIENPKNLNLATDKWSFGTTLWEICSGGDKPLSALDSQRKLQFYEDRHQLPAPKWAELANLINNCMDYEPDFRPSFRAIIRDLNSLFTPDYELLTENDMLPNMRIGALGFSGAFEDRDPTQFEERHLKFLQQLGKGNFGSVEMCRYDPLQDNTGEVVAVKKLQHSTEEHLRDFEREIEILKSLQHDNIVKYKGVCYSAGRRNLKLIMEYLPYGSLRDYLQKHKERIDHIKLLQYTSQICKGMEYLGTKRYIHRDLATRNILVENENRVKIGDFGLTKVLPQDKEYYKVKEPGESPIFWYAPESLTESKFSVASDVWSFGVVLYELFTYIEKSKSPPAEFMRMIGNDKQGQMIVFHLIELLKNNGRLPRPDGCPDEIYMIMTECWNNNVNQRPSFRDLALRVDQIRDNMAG

[3] = target: T2, Tyrosine-protein kinase JAK3 (Homo sapiens, UniProt P52333); assay: Inhibition of JAK3 (unknown origin) using CSKtide as substrate after 30 mins in presence of [gamma32P]ATP by top-count liquid scintillation counting method
T2 sequence (P52333 whole entry): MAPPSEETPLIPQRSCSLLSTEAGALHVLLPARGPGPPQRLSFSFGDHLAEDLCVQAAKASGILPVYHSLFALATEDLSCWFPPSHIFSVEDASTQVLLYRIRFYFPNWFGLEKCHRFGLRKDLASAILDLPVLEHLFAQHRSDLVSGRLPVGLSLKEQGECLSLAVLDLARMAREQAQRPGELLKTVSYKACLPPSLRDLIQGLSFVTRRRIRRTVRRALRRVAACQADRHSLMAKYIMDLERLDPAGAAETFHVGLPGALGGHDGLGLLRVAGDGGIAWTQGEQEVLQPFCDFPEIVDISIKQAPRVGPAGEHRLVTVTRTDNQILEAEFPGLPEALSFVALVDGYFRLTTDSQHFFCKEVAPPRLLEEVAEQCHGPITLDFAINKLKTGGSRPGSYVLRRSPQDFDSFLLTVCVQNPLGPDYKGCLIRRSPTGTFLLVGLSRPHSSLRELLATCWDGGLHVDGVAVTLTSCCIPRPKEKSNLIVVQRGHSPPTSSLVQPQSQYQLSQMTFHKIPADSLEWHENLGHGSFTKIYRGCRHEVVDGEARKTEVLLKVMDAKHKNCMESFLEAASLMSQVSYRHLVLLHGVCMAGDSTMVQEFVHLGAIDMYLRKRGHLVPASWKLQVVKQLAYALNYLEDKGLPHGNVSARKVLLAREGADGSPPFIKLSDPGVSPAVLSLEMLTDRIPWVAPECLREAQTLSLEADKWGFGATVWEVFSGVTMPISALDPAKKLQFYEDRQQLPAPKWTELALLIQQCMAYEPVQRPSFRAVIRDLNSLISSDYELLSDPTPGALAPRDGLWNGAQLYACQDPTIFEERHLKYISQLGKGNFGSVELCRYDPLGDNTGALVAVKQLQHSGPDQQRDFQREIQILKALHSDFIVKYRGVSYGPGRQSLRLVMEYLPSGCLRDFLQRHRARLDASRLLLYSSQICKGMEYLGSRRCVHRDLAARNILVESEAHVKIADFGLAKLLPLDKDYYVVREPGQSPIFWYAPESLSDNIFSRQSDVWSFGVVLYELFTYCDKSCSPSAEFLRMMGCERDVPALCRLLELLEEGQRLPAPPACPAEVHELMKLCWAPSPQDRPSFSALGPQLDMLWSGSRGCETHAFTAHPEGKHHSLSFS

[4] = target: Non-receptor tyrosine-protein kinase TYK2 (Homo sapiens, UniProt P29597); assay: Inhibition of His-tagged TYK2 (unknown origin) using fluoresceinated peptide as substrate after 3 hrs by caliper assay
Sequence of Non-receptor tyrosine-protein kinase TYK2 (P29597 whole entry): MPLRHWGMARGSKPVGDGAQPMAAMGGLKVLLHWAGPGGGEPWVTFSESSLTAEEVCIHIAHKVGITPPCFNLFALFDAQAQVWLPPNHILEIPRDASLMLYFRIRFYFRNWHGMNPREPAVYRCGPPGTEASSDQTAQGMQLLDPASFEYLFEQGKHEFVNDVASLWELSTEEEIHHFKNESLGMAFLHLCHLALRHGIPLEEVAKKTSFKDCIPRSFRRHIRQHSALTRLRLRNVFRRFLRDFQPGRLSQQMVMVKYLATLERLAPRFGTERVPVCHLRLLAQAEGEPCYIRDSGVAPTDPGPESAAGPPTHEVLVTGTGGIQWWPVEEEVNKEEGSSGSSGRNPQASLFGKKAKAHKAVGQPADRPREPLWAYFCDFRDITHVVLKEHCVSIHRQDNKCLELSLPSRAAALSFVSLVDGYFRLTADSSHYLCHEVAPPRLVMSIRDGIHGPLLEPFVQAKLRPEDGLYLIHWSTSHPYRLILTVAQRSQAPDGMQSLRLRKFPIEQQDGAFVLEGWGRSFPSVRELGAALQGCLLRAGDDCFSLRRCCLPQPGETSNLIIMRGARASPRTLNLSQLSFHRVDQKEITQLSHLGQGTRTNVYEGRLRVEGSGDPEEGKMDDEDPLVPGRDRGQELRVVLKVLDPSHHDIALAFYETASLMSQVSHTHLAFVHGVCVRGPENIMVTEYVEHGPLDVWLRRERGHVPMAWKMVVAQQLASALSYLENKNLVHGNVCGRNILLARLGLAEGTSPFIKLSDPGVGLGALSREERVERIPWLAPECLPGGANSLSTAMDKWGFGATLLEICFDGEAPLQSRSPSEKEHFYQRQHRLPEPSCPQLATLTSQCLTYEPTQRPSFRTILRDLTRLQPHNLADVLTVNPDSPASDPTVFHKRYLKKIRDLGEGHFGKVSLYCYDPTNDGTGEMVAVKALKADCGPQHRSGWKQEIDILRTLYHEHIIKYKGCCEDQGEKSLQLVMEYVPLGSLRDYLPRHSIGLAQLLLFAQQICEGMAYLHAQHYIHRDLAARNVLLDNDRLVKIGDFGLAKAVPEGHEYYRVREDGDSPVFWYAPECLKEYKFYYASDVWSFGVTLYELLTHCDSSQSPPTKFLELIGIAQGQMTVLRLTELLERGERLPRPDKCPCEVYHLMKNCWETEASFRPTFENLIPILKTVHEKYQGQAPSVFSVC

T-cell = assay: Inhibition of IL-2 induced cell proliferation in human PBMC derived T cells pretreated for 60 mins followed by IL-2 addition measured after 3 days by [3H]thymidine incorporation assay; format: functional, cell-based
Blood = assay: Inhibition of IL2-induced IFNgamma production in human whole blood; format: functional
JAK3/JAK1 = JAK3/JAK1 (Homo sapiens, UniProt P23458+P52333); assay: Inhibition of JAK1/JAK3 in human PBMC derived T cell assessed as reduction in IL2-induced STAT3 phosphorylation after 30 mins by ELISA; format: protein-complex assay
[5] = target: T1, Tyrosine-protein kinase JAK2; assay: Inhibition of JAK2 in human TF1 cells assessed as reduction in EPO-induced STAT5A phosphorylation pretreated for 30 mins followed by EPO addition measured after 10 mins by ELISA; format: cell-based
JAK1/TYK2 = JAK1/TYK2 (Homo sapiens, UniProt P23458+P29597); assay: Inhibition of JAK1/TYK2 in human PBMC derived T cell assessed as reduction in IFNa2a-induced STAT3 phosphorylation after 30 mins by ELISA; format: protein-complex assay
[6] = target: Macrophage colony-stimulating factor 1 receptor (Homo sapiens, UniProt P07333); assay: Inhibition of FMS (unknown origin) by caliper assay
Sequence of Macrophage colony-stimulating factor 1 receptor (P07333 whole entry): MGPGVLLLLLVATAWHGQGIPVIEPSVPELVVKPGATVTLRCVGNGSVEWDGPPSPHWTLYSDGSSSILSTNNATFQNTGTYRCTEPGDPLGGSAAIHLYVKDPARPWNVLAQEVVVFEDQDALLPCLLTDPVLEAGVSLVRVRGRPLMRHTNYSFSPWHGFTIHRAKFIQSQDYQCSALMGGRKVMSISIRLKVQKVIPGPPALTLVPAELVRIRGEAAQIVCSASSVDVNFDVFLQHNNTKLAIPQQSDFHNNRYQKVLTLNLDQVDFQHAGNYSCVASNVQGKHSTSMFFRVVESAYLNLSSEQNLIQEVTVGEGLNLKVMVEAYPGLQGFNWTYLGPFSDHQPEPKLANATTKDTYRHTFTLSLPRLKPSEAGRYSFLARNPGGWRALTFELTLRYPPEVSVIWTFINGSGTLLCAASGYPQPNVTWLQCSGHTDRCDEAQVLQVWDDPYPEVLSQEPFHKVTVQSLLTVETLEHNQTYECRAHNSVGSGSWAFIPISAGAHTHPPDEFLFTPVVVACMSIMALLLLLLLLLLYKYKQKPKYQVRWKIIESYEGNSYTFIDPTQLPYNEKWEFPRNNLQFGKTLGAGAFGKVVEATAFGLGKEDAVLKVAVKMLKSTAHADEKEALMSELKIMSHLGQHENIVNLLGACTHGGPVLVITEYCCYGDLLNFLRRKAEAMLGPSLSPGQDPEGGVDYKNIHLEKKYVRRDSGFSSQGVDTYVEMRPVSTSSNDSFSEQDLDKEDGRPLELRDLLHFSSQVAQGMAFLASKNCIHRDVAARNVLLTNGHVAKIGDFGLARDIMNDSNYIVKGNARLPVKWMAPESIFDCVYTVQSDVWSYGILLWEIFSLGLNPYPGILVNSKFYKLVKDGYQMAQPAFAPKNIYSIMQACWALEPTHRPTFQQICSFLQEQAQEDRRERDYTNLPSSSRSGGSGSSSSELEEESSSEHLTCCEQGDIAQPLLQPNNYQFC

[7] = target: T3, Tyrosine-protein kinase BTK (Homo sapiens, UniProt Q06187); assay: Inhibition of full length human His-tagged BTK expressed in baculovirus expression system using GEEPLYWSFPAKKK-NH2 as substrate measured after 10 mins in presence of ATP by topcount scintillation counting analysis
T3 sequence (Q06187 whole entry): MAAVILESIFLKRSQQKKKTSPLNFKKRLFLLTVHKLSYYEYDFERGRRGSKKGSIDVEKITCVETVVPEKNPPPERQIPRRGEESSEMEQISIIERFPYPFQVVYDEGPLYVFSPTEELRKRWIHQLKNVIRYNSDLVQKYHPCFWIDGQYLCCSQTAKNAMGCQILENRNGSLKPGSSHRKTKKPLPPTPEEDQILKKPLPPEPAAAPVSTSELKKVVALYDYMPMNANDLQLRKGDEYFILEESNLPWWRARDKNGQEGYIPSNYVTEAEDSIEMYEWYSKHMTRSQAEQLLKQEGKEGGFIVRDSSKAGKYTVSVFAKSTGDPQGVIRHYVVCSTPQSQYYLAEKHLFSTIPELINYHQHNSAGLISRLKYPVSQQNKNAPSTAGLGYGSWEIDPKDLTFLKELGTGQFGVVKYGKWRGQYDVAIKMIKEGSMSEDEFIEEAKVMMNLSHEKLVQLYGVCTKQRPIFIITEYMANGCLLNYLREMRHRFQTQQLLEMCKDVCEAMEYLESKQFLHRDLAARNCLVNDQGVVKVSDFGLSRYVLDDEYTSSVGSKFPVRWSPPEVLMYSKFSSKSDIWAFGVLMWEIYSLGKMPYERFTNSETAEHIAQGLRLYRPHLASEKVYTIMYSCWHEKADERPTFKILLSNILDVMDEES

[8] = target: Epidermal growth factor receptor (Homo sapiens, UniProt P00533); assay: Inhibition of EGFR (unknown origin) by caliper assay
[9] = target: T3, Tyrosine-protein kinase BTK; assay: Inhibition of full length human His-tagged BTK expressed in baculovirus expression system using GEEPLYWSFPAKKK-NH2 as substrate measured immediately in presence of ATP by topcount scintillation counting analysis
[10] = target: T3, Tyrosine-protein kinase BTK; assay: Inhibition of full length human His-tagged BTK expressed in baculovirus expression system using GEEPLYWSFPAKKK-NH2 as substrate pretreated for 15 mins followed by ATP addition measured after 10 mins by topcount scintillation counting analysis
[11] = target: T3, Tyrosine-protein kinase BTK; assay: Inhibition of full length human His-tagged BTK expressed in baculovirus expression system using GEEPLYWSFPAKKK-NH2 as substrate pretreated for 45 mins followed by ATP addition measured after 10 mins by topcount scintillation counting analysis
[12] = target: T3, Tyrosine-protein kinase BTK; assay: Inhibition of full length human His-tagged BTK expressed in baculovirus expression system using GEEPLYWSFPAKKK-NH2 as substrate pretreated for 120 mins followed by ATP addition measured after 10 mins by topcount scintillation counting analysis
[13] = target: T3, Tyrosine-protein kinase BTK; assay: Time-dependent inhibition of full length human His-tagged BTK expressed in baculovirus expression system using GEEPLYWSFPAKKK-NH2 as substrate by topcount scintillation counting analysis
[14] = target: T3, Tyrosine-protein kinase BTK; assay: Inhibition of BTK in goat anti-human IgM F(ab')2-stimulated human whole blood assessed as suppression of BCR-induced CD69 expression on B cells after 18 hrs by FACS analysis
[15] = Bioavailability in mouse; format: ADME, organism-based; conditions: in vivo
[16] = target: T4, Tyrosine-protein kinase JAK3 (Homo sapiens) (UniProt P52333)
T4 sequence (whole entry): T2 sequence (P52333 whole entry)
Description: Time-dependent inhibition of JAK3 (unknown origin) using CSKtide as substrate in presence of [gamma32P]ATP by top-count liquid scintillation counting method

[17] = target: T4, Tyrosine-protein kinase JAK3 (Homo sapiens); assay: Inhibition of JAK3 (unknown origin) using CSKtide as substrate pretreated measured after 30 mins in presence of [gamma32P]ATP by top-count liquid scintillation counting method

Sequence of Tyrosine-protein kinase JAK1 (P23458 whole entry): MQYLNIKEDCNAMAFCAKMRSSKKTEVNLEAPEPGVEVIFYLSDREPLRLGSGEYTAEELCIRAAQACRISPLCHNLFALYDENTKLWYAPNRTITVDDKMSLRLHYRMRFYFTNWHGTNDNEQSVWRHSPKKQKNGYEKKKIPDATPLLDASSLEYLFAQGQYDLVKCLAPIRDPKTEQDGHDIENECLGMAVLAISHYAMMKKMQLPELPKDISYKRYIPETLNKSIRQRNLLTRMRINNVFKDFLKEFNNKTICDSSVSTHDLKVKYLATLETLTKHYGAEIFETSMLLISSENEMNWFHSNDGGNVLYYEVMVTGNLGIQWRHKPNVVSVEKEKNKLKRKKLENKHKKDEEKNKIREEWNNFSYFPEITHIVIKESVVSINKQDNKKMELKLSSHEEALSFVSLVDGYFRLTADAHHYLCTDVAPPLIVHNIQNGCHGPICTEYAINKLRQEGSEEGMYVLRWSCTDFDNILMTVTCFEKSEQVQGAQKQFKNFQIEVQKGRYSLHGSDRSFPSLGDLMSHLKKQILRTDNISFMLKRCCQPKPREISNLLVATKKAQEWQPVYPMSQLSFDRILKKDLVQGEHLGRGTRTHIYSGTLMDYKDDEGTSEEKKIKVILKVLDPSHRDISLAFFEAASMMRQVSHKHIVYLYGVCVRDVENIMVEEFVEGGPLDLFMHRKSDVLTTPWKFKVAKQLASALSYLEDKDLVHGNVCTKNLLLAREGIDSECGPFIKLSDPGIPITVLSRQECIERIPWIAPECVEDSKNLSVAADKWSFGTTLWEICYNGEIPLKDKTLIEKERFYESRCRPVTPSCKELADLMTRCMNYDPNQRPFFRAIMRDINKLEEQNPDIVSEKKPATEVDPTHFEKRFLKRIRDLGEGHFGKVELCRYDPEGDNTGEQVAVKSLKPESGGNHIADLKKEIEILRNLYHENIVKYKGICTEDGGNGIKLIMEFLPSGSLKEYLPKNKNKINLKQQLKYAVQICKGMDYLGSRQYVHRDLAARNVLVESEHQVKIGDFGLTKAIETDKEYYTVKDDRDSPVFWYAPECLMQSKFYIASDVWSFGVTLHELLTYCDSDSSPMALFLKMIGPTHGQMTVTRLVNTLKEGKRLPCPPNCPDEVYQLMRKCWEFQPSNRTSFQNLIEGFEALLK

Structure (SMILES)	IC50 [1] [nM]	IC50 [2] [nM]	IC50 [3] [nM]	IC50 [4] [nM]	IC50 (T-cell) [nM]	further results
NC(=O)c1cnc(Nc2ccccc2)cc1NCc1ccccc1	219	203		774		
C=CC(=O)Nc1cccc(CNc2c(C(N)=O)cnn3cccc23)c1	1700	> 2000	1.3	> 2000	55	IC50 (Blood): 2300 nM
NC(=O)c1cnn2cccc2c1NCc1cccc(NC(=O)COc2c(F)c(F)c(F)c(F)c2F)c1	> 2000	> 2000	743	> 2000	15400	
CCC(=O)Nc1cccc(CNc2cc(Nc3ccccc3)ncc2C(N)=O)c1			100			inhibition [17]: Active
C=CS(=O)(=O)Nc1cccc(CNc2c(C(N)=O)cnn3cccc23)c1	974	1270	3.5	> 2000	6700	
N#CCC(=O)Nc1cccc(CNc2c(C(N)=O)cnn3cccc23)c1	264	658	35	2000	8450	
CN(C)/C=C(/C#N)C(=O)Nc1cccc(CNc2c(C(N)=O)cnn3cccc23)c1	> 2000	> 2000	942	> 2000	14400	

More lines, in order of falling IC50 [1], values ahead:

IC50 [1] [nM]	IC50 [2] [nM]	IC50 [3] [nM]	IC50 [4] [nM]	Structure (SMILES)	IC50 (T-cell) [nM]	further results
1420	> 2000	175	> 2000	C/C=C/C(=O)Nc1cccc(CNc2c(C(N)=O)cnn3cccc23)c1	26600	
1100	1300	< 1	> 5000	C=CC(=O)Nc1cccc(CNc2cc(Nc3ccccc3)ncc2C(N)=O)c1	22	IC50 (JAK3/JAK1): 51 nM; IC50 (Blood): 490 nM; IC50 [5]: 11000 nM; IC50 (JAK1/TYK2): 4900 nM; IC50 [6]: 180 nM; IC50 [7]: > 2500 nM; IC50 [8]: > 10000 nM; EC50 [9]: 19800 nM; EC50 [10]: 6560 nM; EC50 [11]: 2890 nM; EC50 [12]: 1580 nM; TDI [13]: Active; IC50 [14]: > 10000 nM; bioavailability [15]: < 30%; TDI [16]: Active
214	438	14	118	NC(=O)c1cnn2cc(-c3ccccc3)cc2c1NCc1ccccc1		
196	745	30	240	NC(=O)c1cnn2cccc2c1NCc1cccc(NC(=O)Cn2sc3ccccc3c2=O)c1	5480	

Reference: ChEMBL document CHEMBL4043231, “Discovery of highly potent, selective, covalent inhibitors of JAK3” (Bioorg Med Chem Lett, 2017)
